{
  "source": "patent US20230301991A1",
  "about": "“COMPOUNDS FOR THE TREATMENT OF VIRAL INFECTIONS” (priority 2020, published 2023)",
  "key": {"[1]": {"tested_on": "SARS-CoV-2", "type": "cell-based"}, "[2]": {"tested_on": "Calu-3"}, "[3]": {"tested_on": "SARS-CoV-1", "type": "cell-based"}, "[4]": {"tested_on": "MERS", "type": "cell-based"}},
  "data": [
    {"compound": "CNCc1ccc(-c2cc(-c3nc(-c4ccc(S(=O)(=O)C(C)C)cc4)cnc3N)on2)cc1", "note": "[Compound 1, 3-[3-(4-Methylaminomethyl-phenyl)-isoxazol-5-yl]-5-[4-(propane-2-sulfonyl)-phenyl]-pyrazin-2-ylamine]", "values": [
      {"measurement": "inhibition in cells infected by SARS-CoV-2 compared with remdesivir", "setting": "[1]", "value": "comparable with that of the antiviral reference substance remdesivir"},
      {"measurement": "inhibition of virus replication", "setting": "[1]", "value": "dose dependent inhibition"},
      {"measurement": "cell viability", "setting": "[2]", "value": "remains nearly unaffected"},
      {"measurement": "inhibition of virus replication", "setting": "[3]", "value": "dose dependent inhibition"},
      {"measurement": "inhibition of virus replication", "setting": "[4]", "value": "dose dependent inhibition"}
    ]}
  ]
}
